Results on 20 compounds are retold here after US20240043435A1, “TYK-2 INHIBITOR” (BEIGENE, LTD., priority 2020, published 2024).

The target in test [1] is T1, TYK2-JH2 (aa 575-869, in-house) protein (Homo sapiens, UniProt P29597).
T1 construct: TYK2-JH2 (aa 575-869, in-house) protein; made in house
In words: TYK2-JH2 biochemical assay (HTRF probe displacement). The test is classed as binding. The conditions noted are these: Biochemical assay; read-out: TYK2-JH2 IC50. The method, boiled down: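 Recombinant TYK2-JH2 (0.2 nM) was pre-incubated 0.5 h at room temperature with compounds (10 doses, 5-fold dilution; 500× DMSO stocks from 500 uM) in 20 mM HEPES pH 7.5, 10 mM MgCl2, 0.005% BSA, 2 mM DTT, 0.015% Brij-35. Probe displacement was read by HTRF (ex337, em620/665 nm); IC50 from four-parameter logistic fit.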
On the technique in general: TR-FRET usually uses a lanthanide donor and a delayed reading to cut background.

For the next test, the system named is pSTAT5/GM-CSF. Description: pSTAT5/GM-CSF cellular assay (JAK2 selectivity). Type of test: cell-based. Particulars: for Selectivity fold (TYK2/JAK2): pSTAT5/GM-CSF IC50 over pSTAT4/IL-12 IC50.
Test [2] relates to JAK2, TYK2/p-STAT4 (Tyr693) activated by IL-12 in NK-92 cell line. Description: IL-12-JAK2, TYK2/p-STAT4 (Tyr693) inhibition IC50 cellular assay. Type of test: cell-based. Particulars: NK92, Cellular assay; read-out: pSTAT4/IL-12 IC50. The method, boiled down: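 NK-92 cells were starved overnight without IL-2 and preincubated 1 h at 37° C with compound (8 doses, 10000–0.61 nM, 4-fold, 0.2% DMSO). They were then stimulated with IL-12 (40 ng/ml final) for 30 min. Lysate p-STAT4 (Tyr693) was read by AlphaLISA SureFire; IC50 from four-parameter logistic fit.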

T1 sequence (P29597 575-869): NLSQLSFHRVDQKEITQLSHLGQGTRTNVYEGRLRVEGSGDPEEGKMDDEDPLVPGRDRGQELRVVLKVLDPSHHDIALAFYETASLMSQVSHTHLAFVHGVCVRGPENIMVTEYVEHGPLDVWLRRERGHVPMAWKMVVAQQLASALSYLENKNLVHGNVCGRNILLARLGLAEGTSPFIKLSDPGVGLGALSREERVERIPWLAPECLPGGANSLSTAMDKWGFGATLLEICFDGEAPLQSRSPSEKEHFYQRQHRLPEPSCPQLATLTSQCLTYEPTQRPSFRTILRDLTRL

With `CC(=O)Nc1cc(Nc2nc(S(C)(=O)=O)ccc2C)c(-c2ccn(C)n2)cn1` [Example J27, N-(5-(1-methyl-1H-pyrazol-3-yl)-4-((3-methyl-6-(methylsulfonyl)pyridin-2-yl)amino)pyridin-2-yl)acetamide], the figures for the IC50 (in test [1]; in the test on pSTAT5/GM-CSF; in test [2]) were 0.04 nM, > 10000 nM and 0.439 nM, respectively. The “Selectivity fold (TYK2/JAK2)” value with pSTAT5/GM-CSF is given as >22779 fold.
As for `CC(=O)Nc1cc(Nc2cccc(S(=O)(=O)C3CC3)n2)c(-c2ccn(C)n2)cn1` [Example J28, N-(4-((6-(cyclopropylsulfonyl)py-ridin-2-yl)amino)-5-(1-methyl-1H-pyrazol-3-yl)pyridin-2-yl)acetamide], the IC50 in test [1] is 0.053 nM; in the test with pSTAT5/GM-CSF it was > 10000 nM; in test [2], 3.14 nM. In addition, the “Selectivity fold (TYK2/JAK2)” value in the test on pSTAT5/GM-CSF is reported as >3184 fold.
As for `CC(=O)Nc1cc(Nc2cccc(S(=O)(=O)C(C)C)n2)c(-c2ccn(C)n2)cn1` [Example J29, N-(4-((6-(isopropylsulfonyl)pyri-din-2-yl)amino)-5-(1-methyl-1H-pyrazol-3-yl)pyridin-2-yl)acetamide], the IC50 is 0.045 nM in test [1], > 10000 nM in the test with pSTAT5/GM-CSF and 12.4 nM in test [2]. Also, the “Selectivity fold (TYK2/JAK2)” value in the test on pSTAT5/GM-CSF is >805 fold.
In the case of `CC(=O)Nc1cc(Nc2cc(F)cc(S(C)(=O)=O)c2)c(-c2ccn(C)n2)cn1` [Example J30, N-(4-((3-fluoro-5-(methylsulfonyl)phenyl)amino)-5-(1-methyl-1H-pyrazol-3-yl)pyridin-2-yl)acetamide], the results for the IC50 (in test [1]; with pSTAT5/GM-CSF; in test [2]) were 0.054 nM, > 10000 nM and 4.82 nM, respectively. Further, the “Selectivity fold (TYK2/JAK2)” value with pSTAT5/GM-CSF is >2074 fold.
For the compound `CC(=O)Nc1cc(Nc2cc(Cl)cc(S(C)(=O)=O)c2)c(-c2ccn(C)n2)cn1` [Example J31, N-(4-((3-chloro-5-(methylsulfonyl)phenyl)amino)-5-(1-methyl-1H-pyrazol-3-yl)pyridin-2-yl)acetamide], the IC50 in test [1] is 0.076 nM; in the test with pSTAT5/GM-CSF, > 10000 nM; in test [2] it was 15 nM. Moreover, the “Selectivity fold (TYK2/JAK2)” value in the test on pSTAT5/GM-CSF was >668 fold.
The matching figures for `CC(=O)Nc1cc(Nc2cc(C(F)F)cc(S(C)(=O)=O)c2)c(-c2ccn(C)n2)cn1` [Example J32, N-(4-((3-(difluoromethyl)-5-(methylsulfonyl)phenyl)amino)-5-(1-methyl-1H-pyrazol-3-yl)pyridin-2-yl)acetamide]: 0.079 nM, > 10000 nM, 8.79 nM and >1137 fold.
For `COCc1cc(Nc2cc(NC(C)=O)ncc2-c2ccn(C)n2)cc(S(C)(=O)=O)c1` [Example J34, N-(4-((3-(methoxymethyl)-5-(methylsulfonyl)phenyl)amino)-5-(1-methyl-1H-pyrazol-3-yl)pyridin-2-yl)acetamide], in that order: 0.067 nM, > 10000 nM, 9.69 nM and >1031 fold.
For `COCCOc1cc(Nc2cc(NC(C)=O)ncc2-c2ccn(C)n2)cc(S(C)(=O)=O)c1` [Example J35, N-(4-((3-(2-methoxyethoxy)-5-(methylsulfonyl)phenyl)amino)-5-(1-methyl-1H-pyrazol-3-yl)pyridin-2-yl)acetamide], the values for the IC50 (in test [1]; in the test on pSTAT5/GM-CSF; in test [2]) were 0.036 nM, > 10000 nM and 8.13 nM, respectively. Also, the “Selectivity fold (TYK2/JAK2)” value in the test on pSTAT5/GM-CSF is >1230 fold.
The matching figures for `CC(=O)Nc1cc(Nc2cc(OC3CC3)cc(S(C)(=O)=O)c2)c(-c2ccn(C)n2)cn1` [Example J36, N-(4-((3-cyclopropoxy-5-(methylsulfonyl)phenyl)amino)-5-(1-methyl-1H-pyrazol-3-yl)pyridin-2-yl)acetamide]: 0.043 nM, > 10000 nM, 5.05 nM and >1980 fold.
The matching figures for `CC(=O)Nc1cc(Nc2cc(O[C@H]3C[C@H](O)C3)cc(S(C)(=O)=O)c2)c(-c2ccn(C)n2)cn1` [Example J37, N-(4-((3-((trans)-3-hydroxycyclobutoxy)-5-(methylsulfonyl)phenyl)amino)-5-(1-methyl-1H-pyrazol-3-yl)pyridin-2-yl)acetamide]: 0.035 nM, > 10000 nM, 19.1 nM and >523 fold.
As for `CC(=O)Nc1cc(Nc2cc(-c3ccccc3)cc(S(C)(=O)=O)n2)c(-c2ccn(C)n2)cn1` [Example J38, N-(5-(1-methyl-1H-pyrazol-3-yl)-4-((6-(methylsulfonyl)-4-phenylpyridin-2-yl)amino)pyridin-2-yl)acetamide], the IC50 in test [1] was 0.024 nM; in the test on pSTAT5/GM-CSF, > 10000 nM; in test [2] it was 1.98 nM. For the same compound, the “Selectivity fold (TYK2/JAK2)” value in the test on pSTAT5/GM-CSF is on record as >5050 fold.
As for `CC(=O)Nc1cc(Nc2cc(Oc3ccccc3)cc(S(C)(=O)=O)n2)c(-c2ccn(C)n2)cn1` [Example J39, N-(5-(1-methyl-1H-pyrazol-3-yl)-4-((6-(methylsulfonyl)-4-phenoxypyridin-2-yl)amino)pyridin-2-yl)acetamide], the IC50 in test [1] was 0.036 nM; with pSTAT5/GM-CSF, > 10000 nM; in test [2], 10.7 nM. For the same compound, the “Selectivity fold (TYK2/JAK2)” value in the test on pSTAT5/GM-CSF was >935 fold.
The matching figures for `CC(=O)Nc1cc(Nc2cc(Cl)cc(S(C)(=O)=O)n2)c(-c2ccn(C)n2)cn1` [Example J40, N-(4-((4-chloro-6-(methylsulfonyl)pyridin-2-yl)amino)-5-(1-methyl-1H-pyrazol-3-yl)pyridin-2-yl)acetamide]: 0.029 nM, > 10000 nM, 0.326 nM and >30674 fold.
For the compound `COC(C)c1cc(Nc2cc(NC(C)=O)ncc2-c2ccn(C)n2)nc(S(C)(=O)=O)c1` (centres unmarked) [Example J41, N-(4-((4-(1-methoxyethyl)-6-(methylsulfonyl)pyridin-2-yl)amino)-5-(1-methyl-1H-pyrazol-3-yl)pyridin-2-yl)acetamide], the IC50 in test [1] is 0.027 nM; in the test with pSTAT5/GM-CSF, > 10000 nM; in test [2] it was 2.98 nM. For the same compound, the “Selectivity fold (TYK2/JAK2)” value in the test on pSTAT5/GM-CSF was >3355 fold.
Turning to `CC(=O)Nc1cc(Nc2cc(C(F)F)cc(S(C)(=O)=O)n2)c(-c2ccn(C)n2)cn1` [Example J42, N-(4-((4-(difluoromethyl)-6-(methylsulfonyl)pyridin-2-yl)amino)-5-(1-methyl-1H-pyrazol-3-yl)pyridin-2-yl)acetamide], the IC50 was 0.05 nM in test [1], > 10000 nM with pSTAT5/GM-CSF and 0.796 nM in test [2]. Further, in the test on pSTAT5/GM-CSF, the “Selectivity fold (TYK2/JAK2)” value was >12562 fold.
In the case of `CCOc1cc(Nc2cc(NC(C)=O)ncc2-c2ccn(C)n2)nc(S(C)(=O)=O)c1` [Example J43, N-(4-((4-ethoxy-6-(methylsulfonyl)pyridin-2-yl)amino)-5-(1-methyl-1H-pyrazol-3-yl)pyridin-2-yl)acetamide], the IC50 in test [1] was 0.025 nM; with pSTAT5/GM-CSF it was > 10000 nM; in test [2] it was 0.744 nM. In the test with pSTAT5/GM-CSF, the “Selectivity fold (TYK2/JAK2)” value is >13440 fold.
The matching figures for `CC(=O)Nc1cc(Nc2cc(OC3CCC3)cc(S(C)(=O)=O)n2)c(-c2ccn(C)n2)cn1` [Example J44, N-(4-((4-cyclobutoxy-6-(methylsulfonyl)pyridin-2-yl)amino)-5-(1-methyl-1H-pyrazol-3-yl)pyridin-2-yl)acetamide]: 0.022 nM, > 10000 nM, 0.358 nM and >27932 fold.
For `CC(=O)Nc1cc(Nc2cc(OC3CCCC3)cc(S(C)(=O)=O)n2)c(-c2ccn(C)n2)cn1` [Example J45, N-(4-((4-(cyclopentyloxy)-6-(methylsulfonyl)pyridin-2-yl)amino)-5-(1-methyl-1H-pyrazol-3-yl)pyridin-2-yl)acetamide], in that order: 0.028 nM, > 10000 nM, 0.398 nM and >25125 fold.
`CC(=O)Nc1cc(Nc2cc(OC3CCOC3)cc(S(C)(=O)=O)n2)c(-c2ccn(C)n2)cn1` (centres unmarked) [Example J46, N-(5-(1-methyl-1H-pyrazol-3-yl)-4-((6-(methylsulfonyl)-4-((tetrahydrofuran-3-yl)oxy)pyridin-2-yl)amino)pyridin-2-yl)acetamide]: the IC50 in test [1] is 0.033 nM; in the test on pSTAT5/GM-CSF it was > 10000 nM; in test [2], 2.35 nM. The “Selectivity fold (TYK2/JAK2)” value with pSTAT5/GM-CSF is >4255 fold.
The matching figures for `CC(=O)Nc1cc(Nc2cc(OC[C@@H](C)O)cc(S(C)(=O)=O)n2)c(-c2ccn(C)n2)cn1` [Example J47, (R)-N-(4-((4-(2-hydroxypropoxy)-6-(methylsulfonyl)pyridin-2-yl)amino)-5-(1-methyl-1H-pyrazol-3-yl)pyridin-2-yl)acetamide]: 0.037 nM, > 10000 nM, 4.73 nM and >2114 fold.
